Columns and labels:
potassium arsenate = compound: O=[As]([O-])(O)O.[K+] [potassium arsenate]; assay: thermal stability z-score vs DMSO; higher = more thermally stabilized by treatment; settings: HeLa; arsenate concentration 1 mM
Description: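 Cellular thermal proteome profiling in HeLa cells treated with 1 mM arsenate for 1 h (DMSO pretreatment), heated to ten temperatures (37-66.3 °C). Soluble protein was quantified by TMT mass spectrometry relative to DMSO controls; the thermal stability score was transformed to a z-score; mean of n = 3 experiments.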

lipoamide = compound: NC(=O)CCCCC1CCSS1 [lipoamide]; assay: as above; settings: HeLa, lipoamide concentration 100 µM
Description: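 Cellular thermal proteome profiling in HeLa cells. Cells were treated with 100 µM lipoamide for 1 h, with or without 1 mM arsenate for a further 1 h, then heated to ten temperatures (37-66.3 °C), and soluble protein was quantified by TMT mass spectrometry relative to 0.1% DMSO controls. The thermal stability score (sum of log2 fold changes minus the abundance score) was transformed to a z-score; mean of n = 3 experiments.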

[1] = arsenate co-treatment: 1 mM arsenate 1 h
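Also: each temperature applied for 3 min, abundance score taken as mean log2 fold change at the two lowest temperatures, z-score obtained by mean subtraction and division by SD.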

Chain of UniProt Q8NCU4 (Q8NCU4 whole entry): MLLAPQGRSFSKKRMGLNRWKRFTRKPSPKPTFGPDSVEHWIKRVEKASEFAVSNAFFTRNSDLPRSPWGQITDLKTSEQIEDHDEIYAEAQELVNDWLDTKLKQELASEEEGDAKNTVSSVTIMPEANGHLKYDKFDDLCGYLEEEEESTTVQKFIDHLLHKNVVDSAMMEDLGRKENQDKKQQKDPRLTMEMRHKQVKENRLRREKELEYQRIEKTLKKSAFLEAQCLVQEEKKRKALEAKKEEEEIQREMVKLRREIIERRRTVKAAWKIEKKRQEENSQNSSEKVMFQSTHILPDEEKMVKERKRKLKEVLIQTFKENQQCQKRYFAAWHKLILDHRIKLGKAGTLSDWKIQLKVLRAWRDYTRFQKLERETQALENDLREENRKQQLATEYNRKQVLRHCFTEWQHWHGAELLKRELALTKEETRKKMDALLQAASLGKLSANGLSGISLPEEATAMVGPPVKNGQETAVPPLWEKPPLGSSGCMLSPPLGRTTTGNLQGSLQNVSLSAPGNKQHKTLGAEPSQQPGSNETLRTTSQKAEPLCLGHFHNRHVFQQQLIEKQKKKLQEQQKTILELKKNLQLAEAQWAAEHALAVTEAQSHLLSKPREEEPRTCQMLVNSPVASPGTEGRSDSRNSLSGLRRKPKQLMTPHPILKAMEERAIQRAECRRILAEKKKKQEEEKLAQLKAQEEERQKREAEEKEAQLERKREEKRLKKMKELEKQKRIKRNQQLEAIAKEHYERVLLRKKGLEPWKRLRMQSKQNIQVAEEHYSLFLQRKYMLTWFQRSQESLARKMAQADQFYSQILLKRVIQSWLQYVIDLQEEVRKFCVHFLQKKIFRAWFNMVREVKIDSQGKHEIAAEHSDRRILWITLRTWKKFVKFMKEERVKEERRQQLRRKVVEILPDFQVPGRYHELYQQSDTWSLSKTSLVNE
Chain of UniProt Q7L8J4 (Q7L8J4 whole entry): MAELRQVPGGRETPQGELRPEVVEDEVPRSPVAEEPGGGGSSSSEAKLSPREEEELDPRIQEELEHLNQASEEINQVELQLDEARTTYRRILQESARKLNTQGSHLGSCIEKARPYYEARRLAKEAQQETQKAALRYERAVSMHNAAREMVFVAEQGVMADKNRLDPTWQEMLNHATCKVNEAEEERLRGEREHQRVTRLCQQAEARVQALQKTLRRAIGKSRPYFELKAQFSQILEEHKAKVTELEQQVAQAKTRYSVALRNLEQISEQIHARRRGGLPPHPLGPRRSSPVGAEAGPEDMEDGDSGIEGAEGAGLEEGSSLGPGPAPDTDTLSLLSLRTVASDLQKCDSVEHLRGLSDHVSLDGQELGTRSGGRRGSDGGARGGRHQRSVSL
Chain of UniProt P0C7P0 (P0C7P0 whole entry): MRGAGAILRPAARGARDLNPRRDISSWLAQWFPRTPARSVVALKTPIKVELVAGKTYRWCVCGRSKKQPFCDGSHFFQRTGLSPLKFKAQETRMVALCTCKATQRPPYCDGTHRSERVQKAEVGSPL
Chain of UniProt P30419 (P30419 whole entry): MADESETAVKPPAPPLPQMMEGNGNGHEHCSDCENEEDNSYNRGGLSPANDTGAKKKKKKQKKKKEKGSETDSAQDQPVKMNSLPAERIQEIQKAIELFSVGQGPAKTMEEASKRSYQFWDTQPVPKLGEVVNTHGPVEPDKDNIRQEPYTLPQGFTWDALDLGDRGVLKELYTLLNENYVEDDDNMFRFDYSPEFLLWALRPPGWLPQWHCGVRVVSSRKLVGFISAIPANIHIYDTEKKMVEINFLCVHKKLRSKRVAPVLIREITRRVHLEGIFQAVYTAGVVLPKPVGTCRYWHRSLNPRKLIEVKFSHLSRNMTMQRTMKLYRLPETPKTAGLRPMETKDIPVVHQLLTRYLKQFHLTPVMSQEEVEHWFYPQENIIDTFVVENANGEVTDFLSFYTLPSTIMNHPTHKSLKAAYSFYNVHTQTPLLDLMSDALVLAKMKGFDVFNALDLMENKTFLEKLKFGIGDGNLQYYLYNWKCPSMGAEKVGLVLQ
Chain of UniProt Q9Y4D7 (Q9Y4D7 whole entry): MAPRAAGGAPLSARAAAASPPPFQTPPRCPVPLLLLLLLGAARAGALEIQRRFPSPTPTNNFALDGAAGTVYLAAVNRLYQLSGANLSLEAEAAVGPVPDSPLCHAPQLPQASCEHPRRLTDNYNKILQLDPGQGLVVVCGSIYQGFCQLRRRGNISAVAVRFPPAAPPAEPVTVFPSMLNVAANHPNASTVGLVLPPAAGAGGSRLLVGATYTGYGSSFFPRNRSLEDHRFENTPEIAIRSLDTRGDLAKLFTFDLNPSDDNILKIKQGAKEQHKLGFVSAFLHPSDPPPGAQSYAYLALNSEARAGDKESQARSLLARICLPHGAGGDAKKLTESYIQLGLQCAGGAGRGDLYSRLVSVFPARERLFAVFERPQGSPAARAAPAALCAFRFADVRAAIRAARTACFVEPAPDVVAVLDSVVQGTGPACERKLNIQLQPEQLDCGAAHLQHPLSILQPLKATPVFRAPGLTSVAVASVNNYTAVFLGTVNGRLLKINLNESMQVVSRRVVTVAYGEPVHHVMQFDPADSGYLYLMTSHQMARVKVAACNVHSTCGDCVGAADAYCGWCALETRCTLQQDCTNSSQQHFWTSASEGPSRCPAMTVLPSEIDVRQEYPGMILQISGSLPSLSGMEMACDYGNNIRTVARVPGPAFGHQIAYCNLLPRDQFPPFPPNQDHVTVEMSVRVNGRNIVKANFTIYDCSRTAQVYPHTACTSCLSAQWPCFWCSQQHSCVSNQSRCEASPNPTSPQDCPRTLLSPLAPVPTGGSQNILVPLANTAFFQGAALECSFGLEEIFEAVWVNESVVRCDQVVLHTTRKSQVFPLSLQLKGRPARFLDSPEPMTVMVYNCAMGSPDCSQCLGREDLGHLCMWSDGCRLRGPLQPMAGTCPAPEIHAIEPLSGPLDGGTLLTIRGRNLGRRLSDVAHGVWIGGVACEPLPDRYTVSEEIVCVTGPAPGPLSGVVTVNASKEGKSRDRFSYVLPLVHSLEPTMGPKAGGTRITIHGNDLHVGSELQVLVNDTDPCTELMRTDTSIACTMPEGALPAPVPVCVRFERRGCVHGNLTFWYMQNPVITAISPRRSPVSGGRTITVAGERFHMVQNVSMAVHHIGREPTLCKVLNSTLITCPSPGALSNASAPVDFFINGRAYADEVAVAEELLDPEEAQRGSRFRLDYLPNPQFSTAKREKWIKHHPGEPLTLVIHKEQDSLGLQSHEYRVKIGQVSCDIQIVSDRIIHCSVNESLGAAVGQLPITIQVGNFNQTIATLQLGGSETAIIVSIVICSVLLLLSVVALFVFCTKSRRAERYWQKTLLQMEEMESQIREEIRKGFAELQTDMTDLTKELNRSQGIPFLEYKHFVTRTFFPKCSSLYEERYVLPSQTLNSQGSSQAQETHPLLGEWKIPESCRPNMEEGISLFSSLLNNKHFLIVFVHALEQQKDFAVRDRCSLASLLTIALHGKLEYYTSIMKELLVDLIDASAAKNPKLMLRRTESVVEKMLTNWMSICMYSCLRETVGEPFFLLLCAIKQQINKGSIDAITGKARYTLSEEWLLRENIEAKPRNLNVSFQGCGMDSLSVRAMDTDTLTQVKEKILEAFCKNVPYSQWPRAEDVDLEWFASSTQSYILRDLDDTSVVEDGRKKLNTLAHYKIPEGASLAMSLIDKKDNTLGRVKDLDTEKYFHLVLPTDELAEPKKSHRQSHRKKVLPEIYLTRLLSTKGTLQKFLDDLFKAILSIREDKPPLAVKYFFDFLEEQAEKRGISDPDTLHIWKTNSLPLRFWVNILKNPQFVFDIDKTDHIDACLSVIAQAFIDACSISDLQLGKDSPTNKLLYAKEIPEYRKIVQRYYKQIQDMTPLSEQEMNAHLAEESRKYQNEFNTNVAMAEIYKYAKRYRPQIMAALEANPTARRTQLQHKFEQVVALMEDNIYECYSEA
Chain of UniProt Q5TEU4 (Q5TEU4 whole entry): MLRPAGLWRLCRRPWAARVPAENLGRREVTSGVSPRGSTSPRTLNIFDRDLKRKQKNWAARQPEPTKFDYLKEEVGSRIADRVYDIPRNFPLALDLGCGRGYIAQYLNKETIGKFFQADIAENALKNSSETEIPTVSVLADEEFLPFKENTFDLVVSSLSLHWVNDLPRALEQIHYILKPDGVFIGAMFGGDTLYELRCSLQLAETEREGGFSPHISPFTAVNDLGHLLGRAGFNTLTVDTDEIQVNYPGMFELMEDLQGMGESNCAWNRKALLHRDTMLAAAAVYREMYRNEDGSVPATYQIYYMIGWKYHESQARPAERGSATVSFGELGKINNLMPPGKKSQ
Chain of UniProt P24386 (P24386 whole entry): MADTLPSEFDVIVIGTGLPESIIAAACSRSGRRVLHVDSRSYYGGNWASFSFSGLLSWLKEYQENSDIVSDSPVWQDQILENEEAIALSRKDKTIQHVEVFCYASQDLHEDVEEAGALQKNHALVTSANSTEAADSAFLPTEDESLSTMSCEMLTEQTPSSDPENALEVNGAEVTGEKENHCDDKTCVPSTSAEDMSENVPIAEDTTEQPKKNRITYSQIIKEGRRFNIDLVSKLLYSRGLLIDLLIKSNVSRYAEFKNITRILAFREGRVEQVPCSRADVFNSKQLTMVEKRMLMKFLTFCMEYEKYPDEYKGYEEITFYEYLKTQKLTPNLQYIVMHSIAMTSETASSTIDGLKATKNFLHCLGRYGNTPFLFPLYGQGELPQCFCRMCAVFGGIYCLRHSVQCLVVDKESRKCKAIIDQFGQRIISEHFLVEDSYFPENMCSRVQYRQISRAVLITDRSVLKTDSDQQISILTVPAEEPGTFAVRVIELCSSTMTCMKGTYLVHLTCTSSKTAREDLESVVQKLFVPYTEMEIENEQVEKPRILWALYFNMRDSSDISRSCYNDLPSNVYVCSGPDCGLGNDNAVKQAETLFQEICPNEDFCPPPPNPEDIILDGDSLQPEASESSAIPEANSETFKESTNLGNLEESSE
Chain of UniProt Q9UI30 (Q9UI30 whole entry): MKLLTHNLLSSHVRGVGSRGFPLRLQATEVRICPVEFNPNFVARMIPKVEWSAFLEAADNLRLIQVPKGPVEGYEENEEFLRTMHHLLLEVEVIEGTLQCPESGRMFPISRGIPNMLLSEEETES

Target	thermal stability z-score (potassium arsenate)	thermal stability z-score (lipoamide; [1])	thermal stability z-score (lipoamide; arsenate co-treatment: none)
PDCL3 (UniProt Q9H2J4)	-0.174	-0.0813	0.0164
UBXN8 (UniProt O00124)	-0.0404	-1.43	-0.528
RPL4 (UniProt P36578)	-0.66	0.486	0.0127
MRPL54 (UniProt Q6P161)	0.025	-0.648	0.074
CHM (UniProt P24386)	-0.22	0.191	0.152
HIST1H4A (UniProt P62805)	2.61	0.954	0.814
NAT10 (UniProt Q9H0A0)	-0.812	0.444	-0.105
GMEB1 (UniProt Q9Y692)	0.19	-0.239	-0.0658
LOXL2 (UniProt Q9Y4K0)	-0.197	-1.8	-1.35
CDK2 (UniProt P24941)	0.48	1.12	0.288
OTUD7B (UniProt Q6GQQ9)	0.0572	0.194	0.173
IFT81 (UniProt Q8WYA0)	-0.072	-0.223	-0.039
DAGLB (UniProt Q8NCG7)	0.0163	0.268	0.278
MRPL42 (UniProt Q9Y6G3)	-1.61	-1.07	-0.921
DPF2 (UniProt Q92785)	-5.05	2.86	2.98
TRMT61B (UniProt Q9BVS5)	-0.271	-1.22	-0.842
TOP2B (UniProt Q02880)	-0.788	0.61	0.212
POLR1D	-1.73	-0.0835	-0.377
ACACA (UniProt Q13085)	0.153	-0.534	-0.289
NAA40 (UniProt Q86UY6)	0.0387	-0.126	0.2
ATP2B4 (UniProt P23634)	-1.05	-0.147	-0.0358
PLAA (UniProt Q9Y263)	-0.0864	0.0745	-0.41
TNIP2 (UniProt Q8NFZ5)	0.126	0.0235	0.193
TARS2 (UniProt Q9BW92)	0.922	0.183	0.625

Target	thermal stability z-score (potassium arsenate)	thermal stability z-score (lipoamide; [1])	thermal stability z-score (lipoamide; arsenate co-treatment: none)
BCKDHB (UniProt P21953)	1.11	0.134	0.149
SLC5A6 (UniProt Q9Y289)	0.342	-0.586	-0.512
PLXND1 (UniProt Q9Y4D7)	0.534	-0.194	-0.712
CISD3 (UniProt P0C7P0)	0.0591	1.09	1.49
UBE2J2 (UniProt Q8N2K1)	-0.0347	-0.286	-0.461
TMED4 (UniProt Q7Z7H5)	0.0343	-0.192	-0.249
TRMT112 (UniProt Q9UI30)	-0.0169	0.215	-0.0845
MB21D2 (UniProt Q8IYB1)	0.483	0.116	-0.198
RNF40 (UniProt O75150)	0.711	0.453	0.161
SERPINB1 (UniProt P30740)	0.23	0.391	0.191
RAB9A (UniProt P51151)	0.801	0.654	0.721
DIAPH1 (UniProt O60610)	-0.58	0.466	0.801
SNW1 (UniProt Q13573)	-0.395	-0.497	-0.726
CEBPB (UniProt P17676)	-0.856	-0.261	-1.23
SH3BP5L (UniProt Q7L8J4)	0.227	0.286	0.0604
WDR92 (UniProt Q96MX6)	0.368	-0.0904	-0.202
RPL10 (UniProt P27635)	-0.781	0.0934	-0.15
CCDC191 (UniProt Q8NCU4)	-0.189	0.286	-0.0683
KIF3A (UniProt Q9Y496)	0.523	-0.146	0.418
CCPG1 (UniProt Q9ULG6)	0.351	-2.1	-2.44
CEP41 (UniProt Q9BYV8)	-0.106	-0.0855	-0.44
STARD7 (UniProt Q9NQZ5)	1.07	0.0874	1.42
DHFR (UniProt P00374)	0.324	-0.995	-0.563
ZDHHC6 (UniProt Q9H6R6)	-0.412	0.211	-0.0578

Target	thermal stability z-score (potassium arsenate)	thermal stability z-score (lipoamide; [1])	thermal stability z-score (lipoamide; arsenate co-treatment: none)
HNRNPF (UniProt P52597)	-0.208	-0.401	-0.136
ADRBK1 (UniProt P25098)	0.052	0.556	0.421
RNF213 (UniProt Q63HN8)	-0.0363	-0.473	-0.111
NDUFAF5 (UniProt Q5TEU4)	0.155	-0.066	-0.112
CHST14 (UniProt Q8NCH0)	-0.359	-0.943	-0.167
GOT2 (UniProt P00505)	-0.0952	0.218	0.18
GARS (UniProt P41250)	-0.919	-0.224	-0.223
MSTO1 (UniProt Q9BUK6)	-0.742	0.101	-0.0527
METTL1 (UniProt Q9UBP6)	0.207	0.351	0.439
LIN7C (UniProt Q9NUP9)	0.379	0.138	0.419
NEMF (UniProt O60524)	0.135	-0.153	-0.18
BLOC1S4 (UniProt Q9NUP1)	0.401	1.47	0.395
FAM45BP|FAM45A	1.44	0.335	1.28
NMT1 (UniProt P30419)	1.15	0.237	-0.0177
DNAAF5 (UniProt Q86Y56)	0.875	-0.979	0.336
C8ORF33 (UniProt Q9H7E9)	1.19	0.833	-0.384
CD63 (UniProt P08962)	0.0332	0.764	0.402
NDUFS3 (UniProt O75489)	-0.466	-0.384	0.139
RTN4RL2 (UniProt Q86UN3)	0.417	-1.87	-1.25
S100A6 (UniProt P06703)	1.15	1.78	0.967
FKBP7 (UniProt Q9Y680)	-0.253	-4.17	-4.05
MAMLD1 (UniProt Q13495)	0.345	0.0249	0.146
HAUS3 (UniProt Q68CZ6)	-0.102	-0.112	-0.176
